Where two headings read alike, the source gives them in different places.
Key:
[1] = biological target: T1, Human cytomegalovirus DNA polymerase (Human cytomegalovirus, UniProt P08546); experiment: CMV polymerase assay (AlphaLISA); assay type: biochemical; settings: HCMV polymerase 0.2 nM; 30 min pre-incubation; 60 min at 37° C.; read-out: CMV (IC50)
T1 construct: made in house; host or cells: SF21 insect cells (baculovirus vector)
Outline: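 Baculovirus-expressed polymerase (HCMV 0.2 nM, VZV 0.4 nM) preincubated 30 min with compound, then reacted 60 min at 37 °C with 1.6 nM DIG-primer/59-mer template and low-nM dNTPs including 0.8 nM biotin-dUTP. Incorporation detected by AlphaLISA; IC50 from a 4-parameter fit normalized to DMSO and pre-quenched controls.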

[2] = biological target: T2, varicella zoster virus DNA polymerase (Varicella-zoster virus, UniProt P09252); experiment: VZV polymerase assay (AlphaLISA); assay type: biochemical; settings: VZV polymerase 0.4 nM; 30 min pre-incubation; 60 min at 37° C.
T2 construct: made in house; host or cells: SF21 insect cells (baculovirus vector)
Method: Human cytomegalovirus and varicella zoster virus DNA polymerases were expressed via baculovirus vector in SF21 cells and purified. Heterodimeric nucleic acid substrate used in the herpesvirus polymerase reactions was generated by annealing a 59-mer template to a 17-mer digoxigenin-labeled primer. Polymerase (HCMV final concentration of 0.2 nM; VZV final concentration of 0.4 nM) was combined with an inhibitor compound or DMSO in assay buffer (10 mM HEPES, pH 7.5, 25 mM KCl, 25 mM NaCl, 5 mM MgCl2, 5% glycerol, 0.67 mg/ml bovine serum albumin, and 1 mM tris(2-carboxyethyl)phosphine), and this mixture was pre-incubated for 30 minutes at room temperature in 384-well microtiter plates. The polymerization reaction was initiated by the addition of template/primer substrate (final concentration: 1.6 nM), and dNTPs (final concentration: 24 nM dCTP, 24 nMdGTP, 16 nM dATP, 16 nM dTTP, and 0.8 nM biotin-dUTP). After 60 min incubation at 37° C., reactions were terminated with quench buffer (25 mM HEPES pH 7.5, 100 mM NaCl, 0.25% Tween-20, 12 mM EDTA, and 1 mg/ml bovine serum albumin). Incorporation of biotinylated UTP was detected with 2.5-5 ug/ml anti-DIG AlphaLISA acceptor beads and 5-10 ug/ml streptavidin AlphaLISA donor beads (PerkinElmer). Compound effects were normalized to the window defined by the controls (DMSO only and pre-quenched wells) and were fit using a 4-parameter algorithm to report an IC50.

[3] = test system: HCMV Strain AD169; experiment: Viral qPCR assay, HCMV; assay type: cell-based, Human cytomegalovirus; settings: MRC-5 cells, 0.05-0.1 pfu/cell, growth media or 50% fetal bovine serum, viral genome copies by qPCR, read-out: CMV Cell (EC50)
Outline: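 HCMV AD169 at 0.05-0.1 pfu/cell infected MRC-5 cells, added to 10-point 3-fold compound dilutions, in growth medium or medium with 50% FBS; ~72 h at 37°C. Viral genome copies by TaqMan qPCR against plasmid standard curve, normalized to DMSO and uninfected controls; EC50 from 4-parameter fit.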

[4] = test system: VZV; experiment: Viral qPCR assay, VZV; assay type: cell-based, varicella zoster virus; settings: MeWo or MRC5 cells, 0.04-0.1 pfu/cell, growth medium, viral genome copies by qPCR
Outline: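 VZV strain Street at 0.04-0.1 pfu/cell infected MeWo or MRC5 cells added to 10-point, 3-fold compound dilutions; ~72 h at 37° C. Viral genome copies by TaqMan qPCR against plasmid standard curve, sometimes normalised to PPIA, scaled between uninfected and DMSO-infected controls; EC50 from 4-parameter fit.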

[5] = test system: HSV-1 Strain F; experiment: Viral qPCR assay, HSV-1; assay type: cell-based, Herpes Simplex Virus type 1; settings: Vero or MRC5 cells, 0.0005-0.004 pfu/cell, growth medium, viral genome copies by qPCR, read-out: HSV1 Cell (EC50)
Outline: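 HSV-1 strain F at 0.0005–0.004 pfu/cell infected Vero or MRC5 cells, which were added to a 10-point 3-fold compound dilution and cultured ~72 h at 37 °C. Viral genomes in the lysates were quantified by TaqMan qPCR against a plasmid standard curve, in some runs normalized to cellular PPIA. EC50 came from a 4-parameter fit of % effect.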

[6] = Human betaherpesvirus 5, AD169, MRC5, 72 h

T2 sequence (P09252 whole entry): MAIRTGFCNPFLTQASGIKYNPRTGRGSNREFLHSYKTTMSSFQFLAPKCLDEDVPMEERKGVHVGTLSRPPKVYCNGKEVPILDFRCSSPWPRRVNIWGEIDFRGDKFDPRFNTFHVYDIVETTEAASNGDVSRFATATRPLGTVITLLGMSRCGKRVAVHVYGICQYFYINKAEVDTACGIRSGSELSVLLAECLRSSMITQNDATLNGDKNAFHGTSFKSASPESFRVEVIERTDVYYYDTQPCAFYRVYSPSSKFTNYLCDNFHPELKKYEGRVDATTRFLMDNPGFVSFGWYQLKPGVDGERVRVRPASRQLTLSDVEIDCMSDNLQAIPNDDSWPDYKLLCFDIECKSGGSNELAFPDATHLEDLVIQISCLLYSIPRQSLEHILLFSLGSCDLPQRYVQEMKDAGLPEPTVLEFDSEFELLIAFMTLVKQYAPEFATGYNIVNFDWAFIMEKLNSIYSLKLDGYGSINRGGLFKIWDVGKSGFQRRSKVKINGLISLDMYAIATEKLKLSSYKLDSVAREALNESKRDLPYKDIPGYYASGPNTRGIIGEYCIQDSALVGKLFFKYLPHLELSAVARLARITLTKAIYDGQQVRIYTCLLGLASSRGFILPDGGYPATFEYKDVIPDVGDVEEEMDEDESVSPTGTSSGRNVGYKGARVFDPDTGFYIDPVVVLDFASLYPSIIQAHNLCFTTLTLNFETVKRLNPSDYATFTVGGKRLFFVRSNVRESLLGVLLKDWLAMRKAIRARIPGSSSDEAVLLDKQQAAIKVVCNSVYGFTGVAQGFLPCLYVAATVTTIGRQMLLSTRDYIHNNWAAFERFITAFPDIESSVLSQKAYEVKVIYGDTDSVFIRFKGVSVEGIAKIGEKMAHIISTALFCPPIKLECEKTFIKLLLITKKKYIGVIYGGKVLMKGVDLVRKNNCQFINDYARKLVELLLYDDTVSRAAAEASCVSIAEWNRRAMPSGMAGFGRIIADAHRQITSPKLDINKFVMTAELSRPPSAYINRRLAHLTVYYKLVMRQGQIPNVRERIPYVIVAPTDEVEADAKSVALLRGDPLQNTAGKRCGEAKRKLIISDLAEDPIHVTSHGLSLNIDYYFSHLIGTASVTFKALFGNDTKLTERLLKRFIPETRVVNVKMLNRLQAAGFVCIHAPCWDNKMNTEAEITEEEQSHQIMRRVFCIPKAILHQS
T1 sequence (P08546 whole entry): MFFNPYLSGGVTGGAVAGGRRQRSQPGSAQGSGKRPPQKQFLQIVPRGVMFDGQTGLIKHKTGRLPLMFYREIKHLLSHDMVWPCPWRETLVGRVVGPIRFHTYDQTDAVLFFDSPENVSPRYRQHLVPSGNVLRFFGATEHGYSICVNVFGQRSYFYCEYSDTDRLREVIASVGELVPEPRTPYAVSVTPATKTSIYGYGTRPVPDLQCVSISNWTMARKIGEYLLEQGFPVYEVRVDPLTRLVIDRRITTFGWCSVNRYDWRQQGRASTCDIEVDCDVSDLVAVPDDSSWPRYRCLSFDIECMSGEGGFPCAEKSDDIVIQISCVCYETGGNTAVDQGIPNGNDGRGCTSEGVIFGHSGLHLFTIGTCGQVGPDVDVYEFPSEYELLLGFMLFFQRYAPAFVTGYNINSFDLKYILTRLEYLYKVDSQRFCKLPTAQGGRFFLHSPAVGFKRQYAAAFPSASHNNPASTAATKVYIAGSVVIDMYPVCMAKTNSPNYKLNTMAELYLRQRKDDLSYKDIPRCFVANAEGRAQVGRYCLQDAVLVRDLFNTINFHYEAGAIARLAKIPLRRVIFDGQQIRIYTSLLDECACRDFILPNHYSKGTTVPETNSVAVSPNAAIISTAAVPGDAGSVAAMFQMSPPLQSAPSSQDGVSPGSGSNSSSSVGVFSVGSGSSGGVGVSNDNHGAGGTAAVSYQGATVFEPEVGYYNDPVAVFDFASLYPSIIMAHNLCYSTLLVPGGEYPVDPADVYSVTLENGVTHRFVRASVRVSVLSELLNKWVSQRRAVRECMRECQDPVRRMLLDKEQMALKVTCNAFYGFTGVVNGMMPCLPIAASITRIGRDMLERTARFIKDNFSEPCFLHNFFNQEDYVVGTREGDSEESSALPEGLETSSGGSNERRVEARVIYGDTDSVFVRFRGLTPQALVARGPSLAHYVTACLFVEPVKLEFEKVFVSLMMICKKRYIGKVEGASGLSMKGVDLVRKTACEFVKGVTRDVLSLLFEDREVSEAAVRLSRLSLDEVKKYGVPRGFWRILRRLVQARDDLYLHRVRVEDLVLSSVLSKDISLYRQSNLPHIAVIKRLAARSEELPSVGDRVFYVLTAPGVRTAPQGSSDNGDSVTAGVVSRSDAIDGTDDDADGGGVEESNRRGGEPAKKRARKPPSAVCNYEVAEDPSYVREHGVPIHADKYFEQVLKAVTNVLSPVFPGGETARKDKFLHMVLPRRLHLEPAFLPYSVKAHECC

SMILES | IC50 [1] | IC50 [2] | EC50 [3, 6] | EC50 ([4]; Human alphaherpesvirus 3, 72 h) | EC50 ([5]; Human alphaherpesvirus 1, 72 h) | EC50 ([3]; ~72 hrs) | EC50 ([4]; ~72 hrs) | EC50 ([5]; ~72 hrs)
COc1nc(-c2nc(C)no2)c(O[C@H]2CCN3C(=O)OC[C@@H]3C2)cc1C(=O)NCc1ccc(Cl)cc1 [Compound 82] | 8.36 nM | 0.0532 nM | 83.5 nM | 103 nM | 73.9 nM | – | – | –
COc1nc(N2CC(F)(F)C2)c(O[C@H]2CCN3C(=O)OC[C@@H]3C2)cc1C(=O)NCc1ccc(Cl)cc1 [Compound 65] | 16.4 nM | 5.28 nM | 376 nM | 758 nM | 877 nM | – | – | –
COc1nc(C)c(O[C@H]2CCN3C(=O)OC[C@@H]3C2)cc1C(=O)NCc1ccc(Cl)cc1 [Compound 8] | 37.9 nM | 15 nM | 415 nM | 841 nM | 866 nM | – | – | –
CC(C)(O)COc1nc(-c2cnn(C(F)F)c2)c(O[C@H]2CCN3C(=O)OC[C@@H]3C2)cc1C(=O)NCc1ccc(Cl)cc1 [Compound 86] | 8.84 nM | 2.96 nM | 213 nM | 232 nM | 130 nM | – | – | –
COc1nc(N2CCC(C(C)(C)N)C2)c(O[C@H]2CCN3C(=O)OC[C@@H]3C2)cc1C(=O)NCc1ccc(Cl)cc1 (single isomer, unassigned) [Compound 72] | 45.5 nM | 12.4 nM | – | – | – | 276 nM | 665 nM | 559 nM
COc1nc(-c2nnc(C3CC3)s2)c(O[C@H]2CCN3C(=O)OC[C@@H]3C2)cc1C(=O)NCc1ccc(Cl)cc1 [Compound 83] | 11.7 nM | 6.05 nM | 153 nM | 110 nM | 83.5 nM | – | – | –
COCCOc1nc(-c2cnn(C(F)F)c2)c(O[C@H]2CCN3C(=O)OC[C@@H]3C2)cc1C(=O)NCc1ccc(Cl)cc1 [Compound 85] | 15.6 nM | 1.47 nM | 187 nM | 342 nM | 143 nM | – | – | –
COc1nc(-c2cccnc2)c(O[C@H]2CCN3C(=O)OC[C@@H]3C2)cc1C(=O)NCc1ccc(Cl)cc1 [Compound 40] | 15.9 nM | 10.2 nM | 206 nM | 200 nM | 123 nM | – | – | –
COc1nc(-c2cncnc2)c(O[C@H]2CCN3C(=O)OC[C@@H]3C2)cc1C(=O)NCc1ccc(Cl)cc1 [Compound 38] | 9.81 nM | 5.86 nM | 111 nM | 150 nM | 83.1 nM | – | – | –
COc1ncc(O[C@H]2CCN3C(=O)OC[C@@H]3C2)cc1C(=O)NCc1ccc(Cl)cc1 [Compound 103] | 249 nM | 110 nM | 4690 nM | 5500 nM | – | – | – | –
COc1nc(C2CC2O)c(O[C@H]2CCN3C(=O)OC[C@@H]3C2)cc1C(=O)NCc1ccc(Cl)cc1 (single isomer, unassigned) [Compound 78] | 49 nM | – | – | – | 644 nM | 616 nM | 1850 nM | –
COc1nc(-c2cnc(C3CC3)s2)c(O[C@H]2CCN3C(=O)OC[C@@H]3C2)cc1C(=O)NCc1ccc(Cl)cc1 [Compound 63] | 8.74 nM | – | 164 nM | 167 nM | 148 nM | – | – | –
COc1nc(-c2ccn(C)c2)c(O[C@H]2CCN3C(=O)OC[C@@H]3C2)cc1C(=O)NCc1ccc(Cl)cc1 [Compound 30] | 14.5 nM | – | 462 nM | 187 nM | 202 nM | – | – | –
COc1nc(-c2cc3nccnc3[nH]2)c(O[C@H]2CCN3C(=O)OC[C@@H]3C2)cc1C(=O)NCc1ccc(Cl)cc1 [Compound 27] | 33.6 nM | – | 556 nM | 859 nM | 648 nM | – | – | –
COc1nc(-c2ccncc2)c(O[C@H]2CCN3C(=O)OC[C@@H]3C2)cc1C(=O)NCc1ccc(Cl)cc1 [Compound 42] | 10.4 nM | – | 194 nM | 130 nM | 79.8 nM | – | – | –

Molecules with a lower IC50 [1], results first:

IC50 [1] | IC50 [2] | SMILES | EC50 [3, 6] | EC50 ([4]; Human alphaherpesvirus 3, 72 h) | EC50 ([5]; Human alphaherpesvirus 1, 72 h) | EC50 ([3]; ~72 hrs) | EC50 ([4]; ~72 hrs) | EC50 ([5]; ~72 hrs)
4.87 nM | 1.71 nM | COc1nc(-c2cc(C)no2)c(O[C@H]2CCN3C(=O)OC[C@@H]3C2)cc1C(=O)NCc1ccc(Cl)cc1 [Compound 9] | 111 nM | 98.4 nM | 85.7 nM | – | – | –
6.32 nM | 0.351 nM | COc1nc(-c2cnco2)c(O[C@H]2CCN3C(=O)OC[C@@H]3C2)cc1C(=O)NCc1ccc(C#N)cc1 [Compound 60] | 29.8 nM | 90.4 nM | 65 nM | – | – | –
3.33 nM | 0.627 nM | O=C(NCc1ccc(Cl)cc1)c1cc(O[C@H]2CCN3C(=O)OC[C@@H]3C2)c(-c2cnn(C(F)F)c2)nc1OCCO [Compound 84] | 116 nM | 140 nM | 113 nM | – | – | –
3.16 nM | 5.38 nM | COc1nc(-c2cnn(C(F)F)c2)c(O[C@H]2CCN3C(=O)OC[C@@H]3C2)cc1C(=O)NCc1ccc(Cl)c(F)c1 [Compound 55] | 161 nM | 178 nM | 102 nM | – | – | –
7.52 nM | 0.715 nM | COc1nc(-c2cnn(C(F)F)c2)c(O[C@H]2CCN3C(=O)OC[C@@H]3C2)cc1C(=O)NCc1ccc(Cl)cc1 [Compound 4] | 146 nM | 141 nM | 105 nM | – | – | –
2.07 nM | 0.63 nM | COc1nc(-c2cncs2)c(O[C@H]2CCN3C(=O)OC[C@@H]3C2)cc1C(=O)NCc1ccc(Cl)cc1 [Compound 16] | 137 nM | – | – | – | – | –
5.15 nM | – | CN1C(=O)NC[C@@H]1COc1nc(-c2cnn(C(F)F)c2)c(O[C@H]2CCN3C(=O)OC[C@@H]3C2)cc1C(=O)NCc1ccc(Cl)cc1 [Compound 94] | 520 nM | 2180 nM | 773 nM | – | – | –
6.13 nM | – | COc1nc(-c2cnn(C(F)F)c2)c(O[C@H]2CCN3C(=O)OC[C@@H]3C2)cc1C(=O)NCc1cc(F)c(Cl)c(F)c1 [Compound 57] | 538 nM | 364 nM | 207 nM | – | – | –

— patent US20240083910A1, “AMIDO-SUBSTITUTED PYRIDYL COMPOUNDS AND METHODS OF USE THEREOF FOR THE TREATMENT OF HERPESVIRUSES” (Merck Sharp & Dohme LLC, priority 2020, published 2024)
